Measured values reported in patent publication US7968535B2, “Use of azapaullones for preventing and treating pancreatic autoimmune disorders” (Develogen Atkiengesellschaft, priority 2005, dated 2011).

Columns and labels:
primary rat beta cells = test: Replication of primary rat beta cells (Ki67/C-peptide immunofluorescence); assay type: cell-based; conditions: islets treated for 72 hours
Procedure: Cells expressing the proliferation marker Ki67 as well as C-peptide were considered to be replicating beta cells. The percentage of replicating beta cells in islets not exposed to compound 10c (Co.) and islet treated for 72 hours with the indicated amounts of compound 10c was determined by immunofluorescence microscopy.
Isolated rat islets were cultured for 72 hours in the presence of compound 10c before the islets were disaggregated and dispersed on microscope slides. Replicating beta cells were identified by immunohistological staining of dispersed islets with antibodies against C-peptide, a proteolytic fragment of proinsulin, and the cell division marker Ki-67.
Islets of Langerhans are isolated by standard Liberase digestion method from rat pancreata (Liberase™ Cl enzyme blend BMB Cat. #1814-435, ROCHE).
Freshly isolated islets are cultured in vitro with or without the addition of the factor of interest for 48 h. Following the culture period the islets are dispersed gently by titration in Ca^2+ and Mg^2+ free PBS. […]
An Olympus microscope equipped with an automatic image acquisition device (Olympus) is used for counting of C-peptide positive beta cells. Proliferating C-peptide/Ki-67 double positive beta cells are counted manually. Thereby the fraction of proliferating beta cells can be determined.

INS-1E cells [1] = test: Caspase activity assay in glucose/palmitate stressed cells; assay type: cell-based, rat; conditions: 2.5 μM
Procedure: (§1) The effects of the substance on cell viability, cell growth and specific apoptotic events such as caspases activity and DNA-fragmentation was monitored. INS-1E cell apoptosis was induced by treatment of cell cultures with toxic concentrations of glucose and palmitate for 24 hours. The substance of interest was added to the medium 1 hour prior to the addition of the toxic agents.
Caspase activation is a characteristic of early apoptotic cells. The experiment was carried out as described above with the exception that the caspases activity assay was applied instead of the DNA-fragmentation assay (see Example 3 for details).
(§2) 10,000 Ins-1E cells were seeded per 96-well (black 96-well tissue culture plates, Falcon #353948) in 100 μl culture medium (RPMI 1640 containing 11 mM glucose, 5% FCS, 10 mM HEPES, 50 μM 2-mercaptoethanol, 1 mM MEM sodium pyruvate, 100 U/ml penicillin, 100 μg/ml streptomycin) and cultivated at 37° C., 5% CO2 in humidified atmosphere for 3 days. Media was changed to 100 μl starvation medium (culture medium with only 5 mM glucose, 1% FCS) and the cells were re-incubated for 1 day. Then media was exchanged to starvation medium containing test substances.
(§3) Apoptosis of Ins-1E cells was induced by addition of a combination of BSA coupled palmitate and glucose (pal/gluc) or a combination of cytokines (cyt) 1 hour after starting the treatment with test substances: pal/gluc: 0.3 mM palmitate:BSA (palmitic acid sodium salt:fatty acid free BSA 6:1) and 25 mM glucose. 10×cyt: 0.04 ng/ml IL-1β and 1 ng/ml IFNγ. The cells were further incubated with test substances and apoptotic inducer for 24 hours.
Caspase activity is a characteristic of early apoptotic cells. Their activity was quantified by an enzymatic assay (homogeneous caspases assay, Roche, cat. No. 03 005 372 001). Caspase activity was measured 3 hours after addition of caspases substrate according to the manufacturers guidelines.

[2] = test system: panel of 28 protein kinases; test: KinaseProfiler biochemical kinase activity assays; conditions: tested in parallel with 1-Azakenpaullone
Procedure: Experiments were carried out by Upstate Ltd. according to the protocols described in KinaseProfiler™ Assay Protocols Fall 2004 by Ustate Cell Signaling solutions.
Compounds 10c and e are structurally very similar to 1-Azakenpaullone and differ only by one substituent at position 9 of the D ring from their template 1-Azakenpaullone. […] These kinases were selected among about 250 different kinases based on their structural or functional similarity to GSK3, e.g. all available members of the CDK family were included in the survey because CDKs are most similar to GSK3 and several kinase inhibitors are known that inhibit members of both families. The direct comparison of different compounds in such an experiment provides information on the relative selectivity of the respective compounds.

INS-1E cells [3] = test: DNA-fragmentation ELISA in glucose/palmitate stressed cells; assay type: cell-based, rat; conditions: 2.5 μM, glucose/palmitate 24 hours
Procedure: as §1
DNA-fragmentation is a comparatively late apoptotic event comprising storage of nucleosomal DNA-fragments as mono- and oligo nucleosomes in the cytoplasm. The incubation of INS1-E cells with high concentrations of glucose and palmitate for 24 hours leads to DNA breakdown and the accumulation of nucleosomal DNA fragments in the cytoplasm. The detectable amount of cytosolic nucleosomal DNA fragments was reduced by about 17%, when cells were treated with the apoptosis inducing agents in combination with 10 μM 4-AKP.
as §2, §3
DNA-fragmentation is a late apoptotic event comprising storage of nucleosomal DNA-fragments as mono- and oligo nucleosomes in the cytoplasm. Their concentration was determined by ELISA (Cell death detection ELISA, Roche, cat. No. 1774425) according to the manufacturers guidelines.

In the case of `N#Cc1ccc2[nH]c3c(c2c1)CC(=O)Nc1cccnc1-3` [Compound 10c, 6-Oxo-5,6,7,12-tetrahydropyrido[3′,2′:2,3]azepino[4,5-b]indole-9-carbonitrile], the “replication of primary rat beta cells in culture” value (primary rat beta cells) was “stimulates the replication”, the “reduction of caspase activity” value (INS-1E cells [1]) was 77% and the “kinase selectivity / activity profile” value [2] was “selective kinase inhibitors”. For the same molecule, the “reduction of cytosolic DNA-fragments” value (INS-1E cells [3]) was 74%.
